# Source: ChEMBL document CHEMBL1250451, “Mechanistic insights into a Ca2+-dependent family of alpha-mannosidases in a human gut symbiont” (Nat Chem Biol, 2010)
# The source made the active and inactive calls. The rule behind the calls is not given here.
# Tests used:
# Type in all cases: protein assay
# [1] = molecular target: T1, Alpha-1,2-mannosidase, putative (BT_3130) (Bacteroides thetaiotaomicron) (UniProt Q8A325); assay: Activity of Bacteroides thetaiotaomicron GH92 alpha-mannosidase GH92 alpha-mannosidase 3130 assessed as mannose release at 1 mM after 16 hrs by HPLC relative to untreated control after 16 hrs by HPLC
# T1 sequence (whole entry): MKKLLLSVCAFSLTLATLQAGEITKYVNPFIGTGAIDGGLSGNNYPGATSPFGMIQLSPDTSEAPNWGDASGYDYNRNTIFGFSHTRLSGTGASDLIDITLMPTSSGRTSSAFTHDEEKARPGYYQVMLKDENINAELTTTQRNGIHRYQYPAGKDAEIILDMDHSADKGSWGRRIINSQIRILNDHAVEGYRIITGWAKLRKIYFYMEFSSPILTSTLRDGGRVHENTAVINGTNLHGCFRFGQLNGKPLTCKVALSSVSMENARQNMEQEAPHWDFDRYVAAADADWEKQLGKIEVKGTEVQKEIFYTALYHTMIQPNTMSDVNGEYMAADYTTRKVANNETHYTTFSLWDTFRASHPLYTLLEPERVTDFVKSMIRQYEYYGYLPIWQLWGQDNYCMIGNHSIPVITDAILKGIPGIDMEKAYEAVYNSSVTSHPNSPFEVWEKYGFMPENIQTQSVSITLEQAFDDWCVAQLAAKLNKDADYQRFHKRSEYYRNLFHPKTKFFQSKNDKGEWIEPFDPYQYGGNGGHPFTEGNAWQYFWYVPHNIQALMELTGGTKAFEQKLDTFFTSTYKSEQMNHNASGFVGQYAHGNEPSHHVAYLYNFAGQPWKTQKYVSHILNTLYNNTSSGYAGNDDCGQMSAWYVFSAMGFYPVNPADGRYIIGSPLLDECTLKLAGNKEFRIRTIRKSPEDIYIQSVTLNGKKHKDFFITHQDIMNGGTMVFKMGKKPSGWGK
# [2] = molecular target: T2, Alpha-1,2-mannosidase (BT_3991) (Bacteroides thetaiotaomicron) (UniProt Q8A0N0); assay: Activity of Bacteroides thetaiotaomicron GH92 alpha-mannosidase GH92 alpha-mannosidase 3991 assessed as mannose release at 1 mM after 16 hrs by HPLC relative to untreated control after 16 hrs by HPLC
# T2 sequence (whole entry): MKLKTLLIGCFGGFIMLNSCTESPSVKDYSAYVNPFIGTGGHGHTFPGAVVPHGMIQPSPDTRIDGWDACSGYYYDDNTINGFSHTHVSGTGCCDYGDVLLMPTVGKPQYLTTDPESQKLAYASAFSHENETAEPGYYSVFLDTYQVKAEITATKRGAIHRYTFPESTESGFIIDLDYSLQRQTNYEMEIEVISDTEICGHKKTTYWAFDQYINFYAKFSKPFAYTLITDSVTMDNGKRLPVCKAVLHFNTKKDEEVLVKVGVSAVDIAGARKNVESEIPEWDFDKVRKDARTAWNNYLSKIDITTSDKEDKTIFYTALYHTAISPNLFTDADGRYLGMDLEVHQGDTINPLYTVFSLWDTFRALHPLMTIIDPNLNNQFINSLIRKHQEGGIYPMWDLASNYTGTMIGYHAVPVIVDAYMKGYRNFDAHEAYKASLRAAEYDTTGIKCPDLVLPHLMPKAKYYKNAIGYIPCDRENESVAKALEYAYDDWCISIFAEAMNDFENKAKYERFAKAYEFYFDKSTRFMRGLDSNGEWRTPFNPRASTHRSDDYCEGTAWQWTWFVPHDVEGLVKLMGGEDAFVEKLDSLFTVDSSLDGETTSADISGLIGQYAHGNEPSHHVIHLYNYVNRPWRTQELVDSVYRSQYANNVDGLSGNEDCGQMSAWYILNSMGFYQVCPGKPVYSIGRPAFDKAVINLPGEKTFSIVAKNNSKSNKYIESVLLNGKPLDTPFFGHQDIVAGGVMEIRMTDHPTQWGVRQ
# [3] = molecular target: T3, Alpha-1,2-mannosidase family protein (BT_4093) (Bacteroides thetaiotaomicron) (UniProt Q8A0C8); assay: Activity of Bacteroides thetaiotaomicron GH92 alpha-mannosidase GH92 alpha-mannosidase 4093 assessed as mannose release at 1 mM after 16 hrs by HPLC relative to untreated control after 16 hrs by HPLC
# T3 sequence (whole entry): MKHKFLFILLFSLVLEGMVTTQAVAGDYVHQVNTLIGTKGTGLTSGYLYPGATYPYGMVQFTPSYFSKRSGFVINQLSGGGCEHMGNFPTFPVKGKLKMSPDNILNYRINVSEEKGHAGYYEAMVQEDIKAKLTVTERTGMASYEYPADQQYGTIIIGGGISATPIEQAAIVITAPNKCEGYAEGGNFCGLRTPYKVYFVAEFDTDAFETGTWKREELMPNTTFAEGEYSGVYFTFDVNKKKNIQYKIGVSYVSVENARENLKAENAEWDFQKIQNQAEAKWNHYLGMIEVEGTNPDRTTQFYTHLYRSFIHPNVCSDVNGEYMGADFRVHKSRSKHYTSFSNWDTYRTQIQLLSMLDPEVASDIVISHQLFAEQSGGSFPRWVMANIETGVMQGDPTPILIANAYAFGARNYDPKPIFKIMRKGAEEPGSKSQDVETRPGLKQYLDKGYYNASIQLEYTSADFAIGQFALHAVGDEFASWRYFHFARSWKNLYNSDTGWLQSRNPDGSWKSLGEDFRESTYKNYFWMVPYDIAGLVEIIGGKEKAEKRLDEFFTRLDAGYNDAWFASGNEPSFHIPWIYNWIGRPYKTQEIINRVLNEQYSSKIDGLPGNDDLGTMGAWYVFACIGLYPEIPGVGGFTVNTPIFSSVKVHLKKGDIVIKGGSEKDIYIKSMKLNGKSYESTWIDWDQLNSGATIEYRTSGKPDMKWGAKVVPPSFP
Activity [1] [%],Activity [2],Activity [3],SMILES
23,inactive,100%,OC[C@H]1O[C@H](O[C@H]2[C@H](O)[C@H](O)[C@@H](O)O[C@@H]2CO)[C@@H](O)[C@@H](O)[C@@H]1O
21,1.51%,inactive,OC[C@H]1O[C@H](OC[C@H]2O[C@H](O)[C@@H](O)[C@@H](O)[C@@H]2O)[C@@H](O)[C@@H](O)[C@@H]1O
4.3,0.8%,inactive,OC[C@H]1O[C@H](O[C@H]2[C@@H](O)[C@H](O)[C@@H](CO)O[C@@H]2O)[C@@H](O)[C@@H](O)[C@@H]1O
–,–,inactive,OC[C@H]1O[C@H](O[C@@H]2[C@H](O)[C@@H](O)O[C@H](CO)[C@H]2O)[C@@H](O)[C@@H](O)[C@@H]1O
